Assay results as given in ChEMBL document CHEMBL4483862, “Open-source discovery of chemical leads for next-generation chemoprotective antimalarials” (2018).

System: Plasmodium berghei
Assay: Luciferase/luciferin-expressing antifolate-resistant parasites were used to infect a culture of HepG2 cells that were pre-incubated with compounds. Infected hepatocytes emit light due to the luciferase reaction. Assay results are presented as the percent inhibition of light emission compared to control. […]
Format: functional
Conditions: sporozoite; for IC90: read-out: LUCIFERASE INFECTION ASSAY - IC90
[1] = read-out: LUCIFERASE INFECTION ASSAY - IC50

Compound `Cc1nn(-c2ccccn2)c2c1C(c1ccccc1Cl)C1=C(N2)c2ccccc2C1=O` (stereo not drawn) has an IC50 (PBLUC_HILL_SLOPE 22.1, PBLUC_R_SQUARED 0.617, read-out: LUCIFERASE INFECTION ASSAY - IC50) of 9.17 µM and an IC90 greater than 10 µM.
`FC(F)(F)Oc1cccc(-c2ccc3ncc(-c4ccoc4)n3n2)c1` showed an IC50 [1] greater than 10 µM and an IC90 greater than 10 µM.
Work on `CCCNC(=O)c1c(NC(=O)c2ccccc2)nc2ccc(C)cn12` yielded an IC50 (HEPG2TOX_HILL_SLOPE 1.15, HEPG2TOX_R_SQUARED 0.736, PBLUC_HILL_SLOPE 3.57, PBLUC_R_SQUARED 0.289, read-out: LUCIFERASE INFECTION ASSAY - IC50) of 4.2 µM and an IC90 of 7.77 µM.
In the case of `CCOC(=O)c1cnn(-c2cccc(NC(=O)c3ccc(SC)c([N+](=O)[O-])c3)c2)c1C`, the IC50 [1] is reported as greater than 10 µM and the IC90 is reported as greater than 10 µM.
`O=[N+]([O-])c1ccc(/C=[N+](\[O-])c2ccccc2)s1` was tested, and the IC50 [1] was greater than 13.3 µM and the IC90 was greater than 13.3 µM.
`CC(=O)N(c1nc(/C=C2\CCOc3ccc(F)cc3C2=O)cs1)c1cccc(C)c1C` showed an IC50 (FFLUC_HILL_SLOPE 1.6, FFLUC_R_SQUARED 0.338, PBLUC_HILL_SLOPE 1.6, PBLUC_R_SQUARED 0.162, read-out: LUCIFERASE INFECTION ASSAY - IC50) greater than 10 µM and an IC90 greater than 10 µM.
`O=C(Nc1ccccc1N1CCOCC1)c1ccc2noc(-c3ccccc3)c2c1` was tested, and the IC50 (FFLUC_HILL_SLOPE 1.87, FFLUC_R_SQUARED 0.584, PBLUC_HILL_SLOPE 3.85, PBLUC_R_SQUARED 0.483, read-out: LUCIFERASE INFECTION ASSAY - IC50) was 7.96 µM and the IC90 was greater than 10 µM.
Work on `COc1cc(NC(=O)N2CCc3nc(Nc4cc(C)cc(C)c4)ncc3C2)cc(OC)c1OC` yielded an IC50 (PBLUC_HILL_SLOPE 3.8, PBLUC_R_SQUARED 0.0984, read-out: LUCIFERASE INFECTION ASSAY - IC50) of 4.59 µM and an IC90 greater than 7.12 µM.
Compound `O=C(Nc1cc(S(=O)(=O)c2ccccc2)cs1)c1cccc(Cl)c1` has an IC50 (FFLUC_HILL_SLOPE 2.16, FFLUC_R_SQUARED 0.469, read-out: LUCIFERASE INFECTION ASSAY - IC50) greater than 8.73 µM and an IC90 greater than 8.73 µM.
Work on `Cc1cc(C(=O)Cn2c(CO)nc3ccccc32)c(C)n1Cc1ccco1` yielded an IC50 (HEPG2TOX_HILL_SLOPE 21, HEPG2TOX_R_SQUARED 0.739, PBLUC_HILL_SLOPE 1.98, PBLUC_R_SQUARED 0.61, read-out: LUCIFERASE INFECTION ASSAY - IC50) of 3.71 µM and an IC90 greater than 10 µM.
Compound `Cc1cc2nnc(-c3ccc(C(F)(F)F)cc3)n2[nH]1` has an IC50 (FFLUC_HILL_SLOPE 9.36, FFLUC_R_SQUARED 0.07, PBLUC_HILL_SLOPE 1.33, PBLUC_R_SQUARED 0.805, read-out: LUCIFERASE INFECTION ASSAY - IC50) of 3.1 µM and an IC90 greater than 12.4 µM.
`O=C(Nc1cccc(F)c1)Nc1ccc2nc(-c3cccnc3)nn2c1` was tested, and the IC50 [1] was greater than 10 µM and the IC90 was greater than 10 µM.
For `CCCNc1nccn2c(-c3ccc(C(=O)NC4CC4)cc3)cnc12`, the IC50 (HEPG2TOX_HILL_SLOPE 2.37, HEPG2TOX_R_SQUARED 0.851, PBLUC_HILL_SLOPE 7.04, PBLUC_R_SQUARED 0.366, read-out: LUCIFERASE INFECTION ASSAY - IC50) was 5.35 µM and the IC90 was 7.31 µM.
For `CCCOc1cccc(NC(=O)c2cc(CC(C)C)oc2C)c1`, the IC50 (PBLUC_HILL_SLOPE 5.71, PBLUC_R_SQUARED 0.294, read-out: LUCIFERASE INFECTION ASSAY - IC50) was 6.86 µM and the IC90 was 10.1 µM.
`O=[N+]([O-])c1ccc(N2CCc3ccccc32)cc1` gave an IC50 (HEPG2TOX_HILL_SLOPE 7.98, HEPG2TOX_R_SQUARED 0.901, PBLUC_HILL_SLOPE 21.8, PBLUC_R_SQUARED 0.45, read-out: LUCIFERASE INFECTION ASSAY - IC50) of 13.3 µM and an IC90 greater than 13.7 µM.
Compound `O=C1NC(=O)N2CSCC12` (stereo not drawn) has an IC50 [1] greater than 20.9 µM and an IC90 greater than 20.9 µM.
In the case of `CCOC(=O)c1nc(-c2ccc([N+](=O)[O-])o2)no1`, the IC50 [1] is reported as greater than 13 µM and the IC90 is reported as greater than 13 µM.
`CNc1ccc2ncc(-c3ccccc3)n2n1` was tested, and the IC50 (HEPG2TOX_HILL_SLOPE 2.41, HEPG2TOX_R_SQUARED 0.973, PBLUC_HILL_SLOPE 2.77, PBLUC_R_SQUARED 0.442, read-out: LUCIFERASE INFECTION ASSAY - IC50) was 6.15 µM and the IC90 was 13.6 µM.
`CC(C)(C)c1ccc(CSc2nnc(-c3ccco3)n2-c2ccc(OCc3ccccc3)cc2)cc1` gave an IC50 (FFLUC_HILL_SLOPE 93.6, FFLUC_R_SQUARED 0.0881, read-out: LUCIFERASE INFECTION ASSAY - IC50) greater than 6.66 µM and an IC90 greater than 6.66 µM.
`CC(CCc1ccccc1)NC(=O)Cn1c(=O)c(=O)n(Cc2ccccc2)c2ccc(Cl)cc21` (stereo not drawn) gave an IC50 (FFLUC_HILL_SLOPE 12.6, FFLUC_R_SQUARED 0.716, read-out: LUCIFERASE INFECTION ASSAY - IC50) greater than 10 µM and an IC90 greater than 10 µM.
In the case of `Cc1ccc2nc(-c3ccc(NC(=S)NCC(C)(C)CN(C)C)cc3)sc2c1`, the IC50 (PBLUC_HILL_SLOPE 12.9, PBLUC_R_SQUARED 0.101, read-out: LUCIFERASE INFECTION ASSAY - IC50) is reported as 9.07 µM and the IC90 is reported as greater than 10 µM.
Compound `CC1CCC(NC(=O)[C@H](Cc2ccccc2)NC(=O)C(c2ccccc2)c2ccccc2)CC1` (stereo partly drawn) has an IC50 (PBLUC_HILL_SLOPE 2.1, PBLUC_R_SQUARED 0.545, read-out: LUCIFERASE INFECTION ASSAY - IC50) of 4.82 µM and an IC90 greater than 10 µM.
`O=C(NC1CC1)N1CCN(S(=O)(=O)c2ccc3c(c2)OCCCO3)CC1` showed an IC50 [1] greater than 10 µM and an IC90 greater than 10 µM.
For `Cc1ccc(Cn2nnc(-c3ccccc3C)n2)cc1`, the IC50 [1] was greater than 12.5 µM and the IC90 was greater than 12.5 µM.
For `Cc1cc(Cl)ccc1OCCCC(=O)NCCn1c(C)nc2ccccc21`, the IC50 (PBLUC_HILL_SLOPE 11.5, PBLUC_R_SQUARED 0.538, read-out: LUCIFERASE INFECTION ASSAY - IC50) was 9.27 µM and the IC90 was greater than 10 µM.
Work on `N#CC1=C2Sc3ccccc3N2C(O)(C(F)(F)F)C(C(=O)C(F)(F)F)=C1` (stereo not drawn) yielded an IC50 (PBLUC_HILL_SLOPE 9.79, 8.06, PBLUC_R_SQUARED 0.178, 0.335, read-out: LUCIFERASE INFECTION ASSAY - IC50) of 3.71 µM and an IC90 of 4.76 µM.
For `CCCOc1ccc(/C=C/C(=O)Nc2ccc(Br)c(C(F)(F)F)c2)cc1OCC`, the IC50 (FFLUC_HILL_SLOPE 178, FFLUC_R_SQUARED 0.15, HEPG2TOX_HILL_SLOPE 0.174, HEPG2TOX_R_SQUARED 0.586, PBLUC_HILL_SLOPE 2.73, PBLUC_R_SQUARED 0.361, read-out: LUCIFERASE INFECTION ASSAY - IC50) was 7.97 µM and the IC90 was greater than 10 µM.
`Cc1cc(C)c(S(=O)(=O)Nc2cc3c(C(=O)Nc4ccccc4)c(C)oc3c3ccccc23)c(C)c1` gave an IC50 [1] greater than 10 µM and an IC90 greater than 10 µM.
`Cc1ccc(OCc2n[nH]c(=S)n2C2CCCCC2)c2c1CCC2` gave an IC50 (PBLUC_HILL_SLOPE 1.42, PBLUC_R_SQUARED 0.362, read-out: LUCIFERASE INFECTION ASSAY - IC50) greater than 9.61 µM and an IC90 greater than 9.61 µM.
Work on `CCN(CC)CCCNS(=O)(=O)c1c(C)n[nH]c1C` yielded an IC50 (PBLUC_HILL_SLOPE 10.1, PBLUC_R_SQUARED 0.0336, read-out: LUCIFERASE INFECTION ASSAY - IC50) greater than 10 µM and an IC90 greater than 10 µM.
`CC(=O)c1c(C)[nH]c(C(=O)Nc2nc(-c3ccc4c(c3)CCC4)cs2)c1C` was tested, and the IC50 [1] was 6.23 µM and the IC90 was greater than 10 µM.
`O=C(CN1CCN(c2ccc(C(F)(F)F)cn2)CC1)N1CCC(c2nc3ccccc3s2)CC1` gave an IC50 (HEPG2TOX_HILL_SLOPE 13.7, HEPG2TOX_R_SQUARED 0.915, PBLUC_HILL_SLOPE 1.27, PBLUC_R_SQUARED 0.698, read-out: LUCIFERASE INFECTION ASSAY - IC50) of 3.43 µM and an IC90 greater than 10 µM.
`COc1cc(/C=N/Nc2nc(Cl)c(Cl)cc2Cl)ccc1OCC(=O)N1CC(C)OC(C)C1` (stereo not drawn) gave an IC50 [1] greater than 10 µM and an IC90 greater than 10 µM.
With `O=C1CCCN1c1ccc(S(=O)(=O)Oc2ccc(Cl)cc2)cc1` the IC50 (HEPG2TOX_HILL_SLOPE 0.952, HEPG2TOX_R_SQUARED 0.945, PBLUC_HILL_SLOPE 2.14, PBLUC_R_SQUARED 0.73, read-out: LUCIFERASE INFECTION ASSAY - IC50) was 1.04 µM and the IC90 was 2.91 µM.
Compound `Oc1ccc(Br)cc1/C=C/c1ccc2cccc(O)c2n1` has an IC50 (HEPG2TOX_HILL_SLOPE 9.84, HEPG2TOX_R_SQUARED 0.0138, PBLUC_HILL_SLOPE 10.3, PBLUC_R_SQUARED 0.574, read-out: LUCIFERASE INFECTION ASSAY - IC50) of 8.32 µM and an IC90 greater than 9.64 µM.
Compound `CN(C)Cc1ccc(C(=O)Nc2nc3ccccc3[nH]2)cc1` has an IC90 of 0.483 µM.
Work on `Cc1ccc(C)c(-n2c(SCCOc3ccccc3C)nnc2-c2ccccc2Cl)c1` yielded an IC50 (FFLUC_HILL_SLOPE 1.3, FFLUC_R_SQUARED 0.027, HEPG2TOX_HILL_SLOPE 7.63, HEPG2TOX_R_SQUARED 0.817, read-out: LUCIFERASE INFECTION ASSAY - IC50) greater than 10 µM and an IC90 greater than 10 µM.
`O=C(NC1CC1)c1csc(C(O)c2cccc(C(F)(F)F)c2)n1` (stereo not drawn) gave an IC50 (HEPG2TOX_HILL_SLOPE 2.89, HEPG2TOX_R_SQUARED 0.879, PBLUC_HILL_SLOPE 2.14, PBLUC_R_SQUARED 0.663, read-out: LUCIFERASE INFECTION ASSAY - IC50) of 0.408 µM and an IC90 of 1.14 µM.
With `c1ccc(-c2cn3c(-c4ccc5ncccc5c4)cnc3cn2)cc1` the IC50 (HEPG2TOX_HILL_SLOPE 1.31, HEPG2TOX_R_SQUARED 0.967, PBLUC_HILL_SLOPE 1.9, PBLUC_R_SQUARED 0.856, read-out: LUCIFERASE INFECTION ASSAY - IC50) was 0.759 µM and the IC90 was 2.41 µM.
In the case of `OCc1ccc(-c2cnc3cnc(-c4ccccc4CO)cn23)cc1`, the IC50 [1] is reported as greater than 9.96 µM and the IC90 is reported as greater than 9.96 µM.
`Cc1ccc(S(=O)(=O)c2ccc(C(F)(F)F)cc2[N+](=O)[O-])cc1` gave an IC50 (FFLUC_HILL_SLOPE 11, FFLUC_R_SQUARED 0.463, read-out: LUCIFERASE INFECTION ASSAY - IC50) greater than 9.56 µM and an IC90 greater than 9.56 µM.
With `COc1ccc(NC(=O)c2nnc(CSc3nc(C)cc(-c4ccccc4)n3)s2)cc1` the IC50 (HEPG2TOX_HILL_SLOPE 2.12, HEPG2TOX_R_SQUARED 0.961, PBLUC_HILL_SLOPE 18.1, PBLUC_R_SQUARED 0.668, read-out: LUCIFERASE INFECTION ASSAY - IC50) was 0.546 µM and the IC90 was 0.616 µM.
